This note sets out measurements from ChEMBL document CHEMBL4043267, “Synthesis of photocaged 6-O-(2-nitrobenzyl)guanosine and 4-O-(2-nitrobenzyl) uridine triphosphates for photocontrol of the RNA transcription reaction” (Bioorg Med Chem, 2017).

The IC50 is the concentration that inhibits the measured activity by half.

The source made the active and inactive calls. The calls are words filed in the database; no cut-off is given here.

In assay [1] the target is T7 RNA polymerase (Enterobacteria phage T7) (UniProt P00573). The experiment in a line: Inhibition of T7 RNA polymerase assessed as RNA product formation at 0.2 mM using double stranded DNA as substrate after 4 hrs in presence of NTPs by sybrGOLD staining based fluorescence assay (reference value: 100%). To be noted: Escherichia phage T7. The arrangement: scale not given: the % may be the effect or the level left.
Chain of T7 RNA polymerase (Enterobacteria phage T7) (P00573 whole entry): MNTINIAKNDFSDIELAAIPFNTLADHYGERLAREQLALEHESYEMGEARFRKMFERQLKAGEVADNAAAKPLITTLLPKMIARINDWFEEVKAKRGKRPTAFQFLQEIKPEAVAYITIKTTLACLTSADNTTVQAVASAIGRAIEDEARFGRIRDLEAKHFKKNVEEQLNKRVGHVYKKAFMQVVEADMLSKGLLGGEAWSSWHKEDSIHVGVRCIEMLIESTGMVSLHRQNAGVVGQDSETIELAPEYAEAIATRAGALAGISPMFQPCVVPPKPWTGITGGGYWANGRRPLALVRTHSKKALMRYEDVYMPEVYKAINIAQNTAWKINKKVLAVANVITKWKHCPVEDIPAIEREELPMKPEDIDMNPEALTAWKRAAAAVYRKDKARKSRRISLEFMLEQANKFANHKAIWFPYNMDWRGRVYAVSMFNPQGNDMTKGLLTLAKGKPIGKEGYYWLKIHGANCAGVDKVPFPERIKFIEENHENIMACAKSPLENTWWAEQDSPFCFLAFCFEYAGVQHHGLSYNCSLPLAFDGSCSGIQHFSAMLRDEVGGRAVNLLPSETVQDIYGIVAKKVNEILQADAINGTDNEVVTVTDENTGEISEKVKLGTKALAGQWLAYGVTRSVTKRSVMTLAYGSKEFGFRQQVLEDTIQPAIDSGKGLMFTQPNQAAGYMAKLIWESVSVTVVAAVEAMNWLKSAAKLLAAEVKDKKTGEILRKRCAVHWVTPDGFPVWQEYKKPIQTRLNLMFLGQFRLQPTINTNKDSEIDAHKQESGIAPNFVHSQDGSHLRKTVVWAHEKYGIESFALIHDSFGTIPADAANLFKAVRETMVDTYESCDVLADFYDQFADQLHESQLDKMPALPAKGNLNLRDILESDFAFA

Assay [2] has the same target. The experiment in a line: Inhibition of T7 RNA polymerase assessed as RNA product formation at 2 mM using double stranded DNA as substrate incubated in presence of UV irradiation for 10 secs followed by enzyme addition measured after 4 hrs in presence of NTPs by sybrGOLD staining based fluorescence assay relative to controll. Set-up: scale not given: the % may be the effect or the level left. Particulars: Escherichia phage T7.

Assay [3] has the same target. Nature of the assay: Inhibition of T7 RNA polymerase assessed as reduction in RNA product formation at 2 mM using double stranded DNA as substrate incubated in presence of UV irradiation for 60 secs followed by enzyme addition measured after 4 hrs in presence of NTPs by sybrGOLD staining based fluorescence assay relative to control. Set-up: scale not given: the % may be the effect or the level left. To be noted: Escherichia phage T7.

The target of another assay is T7 RNA polymerase (Enterobacteria phage T7, UniProt P00573). Nature of the assay: (§1) Inhibition of T7 RNA polymerase assessed as reduction in RNA product formation using double stranded DNA as substrate after 4 hrs in presence of NTPs by sybrGOLD staining based fluorescence assay (reference value: 100%). Set-up: species or system Escherichia phage T7.
Chain of T7 RNA polymerase (P00573 whole entry): as above
Assay [4] has as its target T7 RNA polymerase (Enterobacteria phage T7) (UniProt P00573). The assay is described as §1. Particulars: Escherichia phage T7.
Assay [5] has the same target. Nature of the assay: Inhibition of T7 RNA polymerase assessed as reduction in RNA product formation at 2 mM using double stranded DNA as substrate incubated in absence of UV irradiation followed by enzyme addition measured after 4 hrs in presence of NTPs by sybrGOLD staining based fluorescence assay relative to control. To be noted: Escherichia phage T7.
For assay [6] the target is unchanged. The experiment in a line: Inhibition of T7 RNA polymerase assessed as RNA product formation at 2 mM using double stranded DNA as substrate after 4 hrs in presence of NTPs by sybrGOLD staining based fluorescence assay (reference value: 100%). Set-up: scale not given: the % may be the effect or the level left. Particulars: Escherichia phage T7.
For assay [7] the target is unchanged. Nature of the assay: Inhibition of T7 RNA polymerase assessed as RNA product formation at 10 mM using double stranded DNA as substrate after 4 hrs in presence of NTPs by sybrGOLD staining based fluorescence assay (reference value: 100%). The arrangement: scale not given: the % may be the effect or the level left. Particulars: Escherichia phage T7.
The target is the same in assay [8]. The experiment in a line: Inhibition of T7 RNA polymerase assessed as RNA product formation at 2 mM using double stranded DNA as substrate incubated in presence of UV irradiation for 1 sec followed by enzyme addition measured after 4 hrs in presence of NTPs by sybrGOLD staining based fluorescence assay relative to control. The arrangement: scale not given: the % may be the effect or the level left. Particulars: Escherichia phage T7.

Assay [9] has the same target. The experiment in a line: Inhibition of T7 RNA polymerase assessed as RNA product formation at 5 mM using double stranded DNA as substrate after 4 hrs in presence of NTPs by sybrGOLD staining based fluorescence assay (reference value: 100%). Set-up: scale not given: the % may be the effect or the level left. To be noted: Escherichia phage T7.
Assay [10] has the same target. The experiment in a line: Inhibition of T7 RNA polymerase assessed as RNA product formation at 2 mM using double stranded DNA as substrate incubated in presence of UV irradiation for 20 secs followed by enzyme addition measured after 4 hrs in presence of NTPs by sybrGOLD staining based fluorescence assay relative to control. Set-up: scale not given: the % may be the effect or the level left. To be noted: Escherichia phage T7.

For assay [11] the target is unchanged. The experiment in a line: Inhibition of T7 RNA polymerase assessed as RNA product formation at 2 mM using double stranded DNA as substrate incubated in presence of UV irradiation for 5 secs followed by enzyme addition measured after 4 hrs in presence of NTPs by sybrGOLD staining based fluorescence assay relative to control. The arrangement: scale not given: the % may be the effect or the level left. To be noted: Escherichia phage T7.

Assay [12] has the same target. Nature of the assay: Inhibition of T7 RNA polymerase assessed as RNA product formation at 1 mM using double stranded DNA as substrate after 4 hrs in presence of NTPs by sybrGOLD staining based fluorescence assay (reference value: 100%). The arrangement: scale not given: the % may be the effect or the level left. To be noted: Escherichia phage T7.
Assay [13] has the same target. The experiment in a line: Inhibition of T7 RNA polymerase assessed as RNA product formation at 0.5 mM using double stranded DNA as substrate after 4 hrs in presence of ATP/UTP/CTP by sybrGOLD staining based fluorescence assay (reference value: 100%). Set-up: scale not given: the % may be the effect or the level left. To be noted: Escherichia phage T7.
The target is the same in assay [14]. The experiment in a line: Inhibition of T7 RNA polymerase assessed as reduction in RNA product formation at 2 mM using double stranded DNA as substrate incubated in presence of UV irradiation for 40 secs followed by enzyme addition measured after 4 hrs in presence of NTPs by sybrGOLD staining based fluorescence assay relative to control. Set-up: scale not given: the % may be the effect or the level left. To be noted: Escherichia phage T7.

Assay [15] has the same target. The experiment in a line: Inhibition of T7 RNA polymerase assessed as reduction in RNA product formation at 2 mM using double stranded DNA as substrate after 4 hrs in absence of NTPs by sybrGOLD staining based fluorescence assay (reference value: 100%). To be noted: Escherichia phage T7.

With `O=c1nc(OCc2ccccc2[N+](=O)[O-])ccn1[C@@H]1O[C@H](COP(=O)(O)OP(=O)(O)OP(=O)(O)O)[C@@H](O)[C@H]1O`, the Activity in assay [1] was 94%; in assay [2] it was 72%; in assay [3], 60%; in [6], 63 to 70%; in [7], 8%; in [8], 67%. In addition, the Activity was 39% in assay [9]; 70% in assay [10]; 81% in [11]; 73% in [12]; 84% in assay [13]; 66% in assay [14]. For the same compound, the IC50 on T7 RNA polymerase came out at 5 mM. Also, in assay [4], the inhibition entry is “Dose-dependent effect”. Moreover, the inhibition entry in assay [5] was “Active”.
Take `Nc1nc(OCc2ccccc2[N+](=O)[O-])c2ncn([C@@H]3O[C@H](COP(=O)(O)OP(=O)(O)OP(=O)(O)O)[C@@H](O)[C@H]3O)c2n1`: the Activity in assay [1] is 89%; in assay [2], 53%; in [3], 62%; in assay [6], 60 to 64%; in assay [7] it was 13%; in assay [8], 4%. Also, the Activity in [9] amounted to 47%; in [10], 62%; in [11], 41%; in assay [12] it was 87%; in [13], 89%; in assay [14] it was 64%. The inhibition result in assay [15] and in [5] was “Active” throughout. Besides, the IC50 at T7 RNA polymerase was determined as 5 mM. The inhibition entry in [4] is “Dose-dependent effect”.
